# Results reported in ChEMBL document CHEMBL1201862, “PubChem BioAssay data set” (2004).
# Activity calls are given as the source filed them.
# Key:
# [1] = PAX8-dependent cell viability loss – plate reader, dry powder, dose response (AID 743049); assay type: functional, cell-based
# [2] = OVCAR4 cell viability loss – plate reader, dry powder, SA11, cytotoxicity control for PAX8 inhibitor project, dose response (AID 743150); assay type: functional, cell-based; conditions: OVCAR-4
# [3] = OVCAR-3 cell viability loss – plate reader, dry powder samples, PAX8 inhibitor project, dose response (AID 743044); assay type: functional, cell-based
# [4] = PAX5 cellular inhibition readout – cell-based, plate reader, dry powder samples, selectivity assay for PAX8 inhibitor project, dose response (AID 743047); assay type: functional;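 further: HEK293 cells carrying a Pax5 driven CD19 promoter luciferase reporter; potency of inhibitors that lower reporter luminescence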
# [5] = OV-90 cell viability loss – plate reader, dry powder, SA8, PAX8 inhibitor project, dose response (AID 743149); assay type: functional, cell-based
# [6] = inhibitors acting on PAX2 in cells – cell-based, plate reader, dry powder samples, selectivity assay for PAX8 inhibitor project, dose response (AID 743048); assay type: functional;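 further: HEK293 cells carrying a WT1 promoter luciferase reporter driven by expressed Pax2; potency is for inhibition of Pax2 driven reporter signal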
# [7] = intracellular Trypanosoma cruzi inhibitors in host cells – cell-based, plate reader, cherry-pick samples, set 3, dose response (AID 651818); assay type: functional;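 further: compounds incubated with infected cells for about four days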
# Paired box protein Pax-8 = Paired box protein Pax-8 (Homo sapiens, UniProt Q06710); experiment: PAX8 transcriptional activity inhibition in RMG-I – RMG-I cells, luciferase, cherry-pick, dose response (AID 687027); assay type: functional, cell-based;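 further: luciferase reporter driven by Pax8 target thyroperoxidase promoter measured by SteadyGlo luminescence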
# Sequence of Paired box protein Pax-8 (Q06710 whole entry): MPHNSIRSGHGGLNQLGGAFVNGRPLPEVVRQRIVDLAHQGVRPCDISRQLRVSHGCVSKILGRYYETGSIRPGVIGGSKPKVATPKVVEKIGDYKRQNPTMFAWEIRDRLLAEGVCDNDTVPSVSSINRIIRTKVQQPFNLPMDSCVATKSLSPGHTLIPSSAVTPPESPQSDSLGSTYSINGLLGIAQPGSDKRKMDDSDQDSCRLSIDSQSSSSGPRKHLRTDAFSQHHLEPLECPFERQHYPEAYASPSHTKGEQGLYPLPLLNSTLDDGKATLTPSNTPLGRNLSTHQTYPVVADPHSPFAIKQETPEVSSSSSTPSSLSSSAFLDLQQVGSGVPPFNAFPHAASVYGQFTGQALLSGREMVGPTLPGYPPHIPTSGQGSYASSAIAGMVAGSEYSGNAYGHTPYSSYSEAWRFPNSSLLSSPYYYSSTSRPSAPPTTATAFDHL
# [8] = Trypanosoma cruzi replication inhibitors in host cells – cell-based, plate reader, dry powder samples, dose response (AID 651845); assay type: functional
# [9] = anti-trypanosomal activity in BESM host cells – imaging, CA-I/72 strain, bovine embryo skeletal muscle, dry powder, dose response (AID 651885); assay type: functional, cell-based
# [10] = T. cruzi growth inhibition in host cells, dose response, cell-based, plate reader, dry powder, set 2 (AID 652275); assay type: functional
# [11] = Late stage results for the probe development effort to identify inhibitors of Plasmodium falciparum gametocytes: Luminescence-based cell-based high throughput dose response assay to identify inhibitors of viability of late stage Plasmodium falciparum gametocytes.; assay type: functional
# INS1 = experiment: INS-1E survival protection against cytokine death – cell-based, luminescence, retest, dose response (AID 449756); assay type: functional; conditions: Rattus norvegicus;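 further: cell death triggered by IL-1 beta plus TNF-alpha plus IFN-gamma mixture; protective hits raise ATP signal compared with cytokine alone wells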
# [12] = biological target: Sphingosine 1-phosphate receptor 2 (Homo sapiens, UniProt O95136); experiment: Dose Response Cell Based Assay for Antagonists of the S1P2 Receptor. [Related pubchem assays: 856, 736 ]; assay type: functional
# Sequence of Sphingosine 1-phosphate receptor 2 (O95136 whole entry): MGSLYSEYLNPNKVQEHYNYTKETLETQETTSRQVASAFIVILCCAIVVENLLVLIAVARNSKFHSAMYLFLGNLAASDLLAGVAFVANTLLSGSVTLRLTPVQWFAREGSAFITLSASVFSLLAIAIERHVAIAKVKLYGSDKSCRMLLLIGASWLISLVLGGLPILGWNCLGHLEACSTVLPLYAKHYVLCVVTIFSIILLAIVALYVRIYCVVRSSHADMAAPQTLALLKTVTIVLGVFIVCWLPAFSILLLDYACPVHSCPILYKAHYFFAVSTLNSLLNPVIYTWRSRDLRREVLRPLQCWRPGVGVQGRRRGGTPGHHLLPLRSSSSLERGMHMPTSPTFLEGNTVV
# [13] = biological target: NAD-dependent protein deacylase sirtuin-5, mitochondrial (Homo sapiens, UniProt Q9NXA8); experiment: sirtuin-5 deacylation blockers, concentration series – biochemical, fluorescence imaging, cherry-pick, set 5, dose response (AID 720591);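 further: desuccinylation of succinyl peptide AMC substrate read as fluorescence after trypsin release; potency of inhibitors that lower fluorescence and may act on trypsin instead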
# Sequence of NAD-dependent protein deacylase sirtuin-5, mitochondrial (Q9NXA8 whole entry): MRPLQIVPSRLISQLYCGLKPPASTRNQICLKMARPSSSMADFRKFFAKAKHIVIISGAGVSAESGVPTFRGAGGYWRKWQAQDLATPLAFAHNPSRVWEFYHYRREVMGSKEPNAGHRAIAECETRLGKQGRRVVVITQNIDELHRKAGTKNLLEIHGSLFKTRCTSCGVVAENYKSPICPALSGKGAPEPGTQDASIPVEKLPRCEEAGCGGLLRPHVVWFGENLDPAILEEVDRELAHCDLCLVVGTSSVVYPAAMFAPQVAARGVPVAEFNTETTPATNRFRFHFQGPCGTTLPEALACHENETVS
# [14] = viability loss in THP-1 monocytes – THP-1 cells, cytotoxicity control for Vif-APOBEC3G degradation inhibitor project, dose response (AID 1117359); assay type: functional; conditions: THP-1
# [15] = biological target: Signal transducer and activator of transcription 1-alpha/beta (Homo sapiens, UniProt P42224); experiment: inhibition of STAT1 reporter activity – cell-based, NIH 3T3, luciferase reporter, dose response (AID 1396); assay type: functional
# Sequence of Signal transducer and activator of transcription 1-alpha/beta (P42224 whole entry): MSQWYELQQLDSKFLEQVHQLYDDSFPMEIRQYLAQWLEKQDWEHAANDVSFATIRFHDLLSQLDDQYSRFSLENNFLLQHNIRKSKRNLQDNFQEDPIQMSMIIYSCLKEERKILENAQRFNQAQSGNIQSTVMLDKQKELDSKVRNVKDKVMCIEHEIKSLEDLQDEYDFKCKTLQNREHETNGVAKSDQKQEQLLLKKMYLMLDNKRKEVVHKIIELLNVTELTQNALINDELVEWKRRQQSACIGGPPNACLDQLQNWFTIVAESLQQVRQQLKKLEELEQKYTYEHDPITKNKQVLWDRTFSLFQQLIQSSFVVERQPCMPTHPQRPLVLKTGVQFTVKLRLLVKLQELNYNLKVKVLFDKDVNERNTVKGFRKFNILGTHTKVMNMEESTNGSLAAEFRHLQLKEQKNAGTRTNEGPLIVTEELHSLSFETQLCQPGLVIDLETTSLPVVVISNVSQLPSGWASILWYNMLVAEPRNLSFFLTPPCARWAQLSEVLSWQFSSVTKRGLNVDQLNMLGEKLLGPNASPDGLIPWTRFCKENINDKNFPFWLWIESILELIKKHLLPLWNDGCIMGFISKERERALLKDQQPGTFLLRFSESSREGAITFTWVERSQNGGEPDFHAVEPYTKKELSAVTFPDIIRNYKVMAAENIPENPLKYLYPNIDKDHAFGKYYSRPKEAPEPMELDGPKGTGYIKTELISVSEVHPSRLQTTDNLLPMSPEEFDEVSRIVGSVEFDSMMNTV
# Cytochrome P450 2C9 = Cytochrome P450 2C9 (Homo sapiens, UniProt P11712)
# Sequence of Cytochrome P450 2C9 (P11712 whole entry): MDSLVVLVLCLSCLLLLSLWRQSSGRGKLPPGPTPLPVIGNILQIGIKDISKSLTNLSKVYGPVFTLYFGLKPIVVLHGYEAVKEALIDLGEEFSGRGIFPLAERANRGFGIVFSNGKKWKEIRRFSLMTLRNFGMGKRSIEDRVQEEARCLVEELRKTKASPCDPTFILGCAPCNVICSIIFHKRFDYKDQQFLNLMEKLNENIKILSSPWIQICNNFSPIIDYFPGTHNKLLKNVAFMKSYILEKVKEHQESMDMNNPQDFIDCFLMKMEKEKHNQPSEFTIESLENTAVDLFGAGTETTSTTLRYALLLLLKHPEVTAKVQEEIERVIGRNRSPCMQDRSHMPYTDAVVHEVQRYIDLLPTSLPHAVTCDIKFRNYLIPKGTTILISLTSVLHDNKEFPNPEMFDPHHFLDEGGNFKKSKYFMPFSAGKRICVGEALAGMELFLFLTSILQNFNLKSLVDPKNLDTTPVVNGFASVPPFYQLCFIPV
# [16] = IC50 of Artemis nuclease activity blockers – biochemical, fluorescence intensity, dose response (AID 720701); assay type: functional;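 further: Artemis endonuclease enzyme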
# [17] = microbe, parasite or virus in culture; assay type: functional; conditions: Mycobacterium tuberculosis
# [18] = biological target: Serine/threonine-protein phosphatase (Homo sapiens, UniProt Q9BPW0); experiment: Counterscreen for inhibitors of PP1: fluorescence-based biochemical high throughput dose response assay to identify inhibitors of Protein Phosphatase 5 (PP5). [Related pubchem assays: 2034 (Summary (PP5 inhibitors)), 1987 (PP5 inhibitors in singlate), 2235 (PP1 inhibitors in singlate)]
# Sequence of Serine/threonine-protein phosphatase (Q9BPW0 whole entry): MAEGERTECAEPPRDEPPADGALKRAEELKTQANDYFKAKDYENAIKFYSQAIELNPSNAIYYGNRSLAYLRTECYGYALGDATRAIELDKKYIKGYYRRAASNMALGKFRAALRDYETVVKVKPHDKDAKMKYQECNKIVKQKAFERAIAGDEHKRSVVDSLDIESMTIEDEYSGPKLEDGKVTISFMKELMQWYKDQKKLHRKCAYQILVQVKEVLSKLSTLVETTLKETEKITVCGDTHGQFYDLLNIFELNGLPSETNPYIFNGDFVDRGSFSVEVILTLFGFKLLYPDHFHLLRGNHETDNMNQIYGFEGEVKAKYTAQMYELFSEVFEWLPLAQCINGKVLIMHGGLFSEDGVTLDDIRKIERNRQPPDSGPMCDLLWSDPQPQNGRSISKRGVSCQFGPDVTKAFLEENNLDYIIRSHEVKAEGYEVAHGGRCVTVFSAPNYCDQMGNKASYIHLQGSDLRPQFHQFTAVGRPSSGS
# [19] = biological target: Serine/threonine-protein phosphatase PP1-alpha catalytic subunit (Homo sapiens, UniProt P62136); experiment: inhibition of protein phosphatase 1 activity – biochemical, fluorescence, dose response (AID 2403);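 further: phosphatase turnover of OMFP into fluorescent 3-O-methylfluorescein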
# Sequence of Serine/threonine-protein phosphatase PP1-alpha catalytic subunit (P62136 whole entry): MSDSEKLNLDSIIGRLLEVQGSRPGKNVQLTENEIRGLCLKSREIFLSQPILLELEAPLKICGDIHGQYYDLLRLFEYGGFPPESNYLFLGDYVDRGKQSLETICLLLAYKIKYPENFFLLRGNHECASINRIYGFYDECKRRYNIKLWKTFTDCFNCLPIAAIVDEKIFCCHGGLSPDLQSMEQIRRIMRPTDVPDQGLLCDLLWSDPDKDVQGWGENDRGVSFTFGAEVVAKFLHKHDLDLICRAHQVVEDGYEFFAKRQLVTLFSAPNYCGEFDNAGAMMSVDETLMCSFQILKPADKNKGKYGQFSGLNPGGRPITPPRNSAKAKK
# [20] = Luminescence Cell-Based Dose Response HTS to Identify Inhibitors of 5'UTR Stem-Loop Driven Prion Protein mRNA Translation in H4 Neuroglioblastoma Cells. [Related pubchem assays: 1827 (Project Summary), 1813 (Primary HTS)]; assay type: functional
# [21] = alpha-synuclein stem-loop luciferase translation blockers – H4 neuroglioma cells, luminescence, confirmation (AID 1988); assay type: functional, cell-based
# [22] = HIV-1 Vif–A3G interaction blockers – biochemical, TR-FRET, GST-Vif 1-94, biotin-A3G peptide, dose response retest, primary screen (AID 1117319); assay type: functional;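 further: TR-FRET signal of purified GST-Vif binding a biotinylated A3G peptide; inhibitors lower the FRET signal by blocking Vif and A3G binding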
# [23] = luciferase reporter signal suppression in cells – H4 neuroglioma cells, luminescence, dose response (AID 1990); assay type: functional, cell-based
smiles,measurement,setting,value
COc1ccc(S(=O)(=O)Nc2ccc3c(c2)CC(=O)N([C@@H](C)CO)C[C@H](C)[C@@H](CN(C)Cc2ccc(C(F)(F)F)cc2)O3)cc1,AC50,[1],31.3 µM (active)
same,AC50,[2],59.7 µM (active)
same,AC50,[3],49.1 µM (active)
same,AC50,[4],21.7 µM (active)
same,AC50,[5],> 70 µM (inactive)
same,AC50,[6],20 µM (active)
same,AC50,[7],3.67 µM (active)
same,AC50,Paired box protein Pax-8,6.21 µM (active)
CC(C)N1C[C@H](C)[C@@H](CN(C)Cc2ccc(Oc3ccccc3)cc2)Oc2c(NC(=O)c3ccccc3)cccc2C1=O,AC50,[8],0.506 µM (active)
same,IC50,[9],> 20 µM (inactive)
same,AC50,[10],0.506 µM (active)
O=C(Nc1nccs1)c1cc(C2CC2)nn1-c1ccccc1,IC50,[11],> 37.2 µM (inactive)
Cc1ccc(-c2nn(-c3ccccc3)cc2/C=N/NC(=O)c2ccc(Br)o2)cc1,AC50,INS1,0.716 µM (active)
same,IC50,[12],3.36 µM (active)
COc1ccc(CN(C(=O)c2ccco2)c2ccc(C)c(C)c2)cc1,AC50,[13],24.7 µM (active)
Cc1cc(N(CCCl)CCCl)ccc1C=NNC(=O)c1cccnc1,CC50,[14],20 µM (active)
CC1C(=O)NN=C1C(=O)N/N=C\C(Br)=C\c1ccccc1 (stereo unspecified),IC50,[15],10.5 µM (not active)
c1ccc(-c2nccc(-c3ccc(-n4cnc5ccccc54)cc3)n2)nc1,AC50,Cytochrome P450 2C9,22.4 µM (inconclusive)
same,IC50,[16],4.65 µM (active)
same,CC50,[17],> 40 µM (active)
same,IC50,[18],57.6 µM (not active)
same,IC50,[19],4 µM (active)
Cc1ccc(NCc2nnc(SCc3ccc(C#N)cc3)n2Cc2ccco2)c(C)c1,EC50,[20],> 120 µM (not active)
same,EC50,[21],> 120 µM (not active)
same,IC50,[22],> 100 µM (active)
same,EC50,[23],> 120 µM (not active)
